{"source": "patent US7972772B2", "about": "“KIF11 and method for diagnosing non-small cell lung cancer” (Oncotherapy Science, Inc., priority 2004, dated 2011)", "key": {"A549 cells [1]": {"tested_on": "A549 cells", "assay": "Monastrol treatment of A549 cells, microscopy and time-lapse video-microscopy", "type": "cell-based, human", "settings": "most non-mitotic cells"}, "GHSR1b": {"tested_on": "GHSR1b", "assay": "Ligand-receptor binding assay, COS-7 cells transfected with GHSR1b", "design": "species or system human", "protocol": "(§1) To identify direct binding of NMU-25 to its candidate receptors, GHSR1a, GHSR1b and NTSR1, the following experiments were performed. The entire coding region of each receptor gene was amplified by RT-PCR using primers\n(§2) The products were digested with EcoR1 and BainH1 and cloned into appropriate sites of p3XFLAG-CMV10 vector (Sigma-Aldrich Co.). COS-7 cells were transfected with GHSR1b or NTSR1 expression plasmids using FuGENE6, as described above. Transfected COS-7 cells were cultured with 0.5 μM rhodamine-labeled NMU-25 peptide (NMU-25-rhodamine: Phoenix Pharmaceuticals. Inc.) for 12 hours, washed five times in PBS(−), and fixed in 4% paraformaldehyde solution for 60 min at room temperature. Then the cells were incubated with antibodies to FLAG-tagged GHSR1a, GHSR1b, or NTSR1 proteins (Sigma-Aldrich Co.), stained with a goat anti-mouse secondary antibody conjugated to FITC (Cappel) and viewed under laser-confocal microscopy (TCS SP2 AOBS: Leica Microsystems). […]\n(§3) To confirm the binding of NMU-25 to the candidate receptors, flow-cytometric analysis was performed using the same series of COS-7 cells. […] The population of cells binding to rhodamine-labeled NMU-25 was determined by flow cytometry."}, "NTSR1": {"tested_on": "NTSR1", "assay": "Ligand-receptor binding assay, COS-7 cells transfected with NTSR1", "design": "species or system human", "protocol": "as §1, §2, §3"}, "[2]": {"molecular_target": "T1, endogenous GHSR1b and NTSR1 on PC-14 cells (Homo sapiens, UniProt P30989+Q92847)", "T1 construct": "endogenous in cells; host or cells: PC-14", "assay": "Receptor-ligand binding assay on PC-14 cells", "protocol": "(§4) To further confirm binding of NMU-25 to the endogenous candidate receptors on the NSCLC cells, we performed receptor-ligand binding assay using the LC319 and PC-14 cells. Briefly, these cells trypsinized were seeded onto 96-well black-wall, clear-bottom microtiter plates 24 hours prior to the assay. The medium was removed and the cells were incubated with Cy5-NMU-25 with a 10-fold excess of unlabeled competitor. The plate was incubated in the dark for 24 hours at 37° C. and was scanned on the 8200 Cellular Detection System (Applied Biosystems). 8200 Analysis Software creates a digitized gray scale image, quantitates the amount of fluorescence bound on the surface of each cell, and enumerates the fluorescent cells."}, "[3]": {"molecular_target": "T2, endogenous GHSR1b and NTSR1 on LC319 cells (Homo sapiens, UniProt P30989+Q92847)", "T2 construct": "endogenous in cells; host or cells: LC319", "assay": "Receptor-ligand binding assay on LC319 cells", "protocol": "as §4"}, "COS-7 cells": {"tested_on": "COS-7 cells", "assay": "Growth of COS-7 cells with NMU in the medium", "type": "cell-based", "settings": "addition into the medium, dose-dependent"}, "GHSR1b/NTSR1": {"molecular_target": "T3, GHSR1b/NTSR1 (Homo sapiens, UniProt P30989+Q92847)", "T3 construct": "endogenous in cells; host or cells: LC319", "T3 sequence (Q92847 1-289 isoform Q92847-2)": "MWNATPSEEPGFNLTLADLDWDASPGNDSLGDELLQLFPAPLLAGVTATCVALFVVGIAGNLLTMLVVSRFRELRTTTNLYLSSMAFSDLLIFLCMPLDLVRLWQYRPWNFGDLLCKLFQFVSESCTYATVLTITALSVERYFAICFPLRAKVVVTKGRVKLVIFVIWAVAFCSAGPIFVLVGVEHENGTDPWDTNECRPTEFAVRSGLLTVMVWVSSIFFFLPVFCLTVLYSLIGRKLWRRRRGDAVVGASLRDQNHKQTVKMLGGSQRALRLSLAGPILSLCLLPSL", "T3 sequence (P30989 whole entry)": "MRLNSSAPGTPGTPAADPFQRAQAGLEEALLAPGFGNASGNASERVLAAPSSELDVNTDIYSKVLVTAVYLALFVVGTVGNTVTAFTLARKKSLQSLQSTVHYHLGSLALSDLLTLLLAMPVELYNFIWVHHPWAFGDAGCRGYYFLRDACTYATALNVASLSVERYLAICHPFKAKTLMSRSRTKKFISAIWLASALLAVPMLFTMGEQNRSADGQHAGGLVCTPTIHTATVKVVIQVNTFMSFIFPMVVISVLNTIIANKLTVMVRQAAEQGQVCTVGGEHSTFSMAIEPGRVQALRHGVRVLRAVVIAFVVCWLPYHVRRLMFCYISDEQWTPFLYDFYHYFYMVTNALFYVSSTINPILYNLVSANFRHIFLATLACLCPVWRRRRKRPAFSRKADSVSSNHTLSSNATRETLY", "assay": "Intracellular Ca2+ mobilization assay in LC319 cells", "type": "cell-based", "protocol": "Trypsinized LC319 cells were seeded onto poly-D-lysine coated 384-well black-wall, clear-bottom microtiter plate (1.0×10^4 cells/ml) 24 hours prior to assay. Cells were loaded for 1 hour with […] Fluo-4-AM fluorescent indicator dye in assay buffer (Hank's balanced salts solution, 20 mM HEPES, 2.5 mM probenecid), washed three times with assay buffer, and then returned to the incubator for 10 min before assay on a fluorometric imaging plate reader (FLIPR, Molecular Devices). Maximum change in fluorescence over base line was used to determine the response of the cells to the NMU-25 peptides stimulation."}, "FOXM1": {"tested_on": "FOXM1", "assay": "Induction of FOXM1 in LC319 cells, semiquantitative RT-PCR", "type": "cell-based, human", "settings": "LC319, 100 μM, versus BSA control", "protocol": "Expression of the candidate genes was additionally detected by semiquantitative RT-PCR using mRNAs isolated at 72 and 96 hours from LC319 cells treated with 1 μM NMU-25 or BSA at the time point of 0 and 48 hours.\nTherefore, we chose FOXM1 for further analysis. To determine specific induction of the FOXM1 by the NMU ligand-receptor signaling, LC319 cells expressing GHSR1b and NTSR1 were cultured in the presence of NMU-25 or BSA (control) at final concentrations of 100 μM in the culture media."}, "A549 cells [4]": {"tested_on": "A549 cells", "assay": "Nocodazole treatment of A549 cells, immunocytochemistry", "type": "cell-based, human", "settings": "10 μM, four hours", "text": "We also investigated the endogenous location of KOC1 and KIF11 particles on the ultrafine structure of microtubules bridging individual A549 cells by an immunocytochemical study, using affinity-purified anti-KOC1- or anti-KIF11 for primary antibody and Alexa594-labeled anti-rabbit IgG for secondary antibody (Molecular Probe) and anti-alpha-tubulin-FITC monoclonal antibody. […] Moreover, no particle was found on the residual structure between the cells. […] To further clarify the detailed mechanism by which the KOC1-KIF11 complex transports mRNAs in NSCLC cells, we have searched for other component(s) that might be interacting with KIF11. Immunoprecipitation with anti-KIF11 polyclonal antibody using a lysate of LC319 cells identified a 150-kDa protein, which was later determined to be a dynactin 1 (DCTN1; p150, glued homolog, Drosophila) by MALDI-TOF mass-spectrometric analysis. DCTN1 is the largest subunit of DCTN, which binds to the cytoplasmic motor-protein dynein and activates vesicle transport along microtubules (Holzbaur, E. L. & Tokito, M. K. Genomics 31, 398-399 (1996); Tokito, M. K. et al., Mol. Biol. Cell 7, 1167-1180 (1996)), or binds to KIF11 to probably participate in centrosome separation (Blangy, A. et al., J. Biol. Chem. 272, 19418-19424 (1997)). […]"}, "[5]": {"settings": "COS-7, NMU-25-rhodamine 0.5 μM, 12 hours"}}, "note": "No end group written: not given here.", "data": [{"compound": "CCOC(=O)C1=C(C)NC(=S)NC1c1cccc(O)c1", "note": "(centres unmarked) [monastrol]", "values": [{"measurement": "time to loss of protrusion and connection to adjacent cells, non-mitotic cells", "setting": "A549 cells [1]", "value": "≤ 2", "unit": "h"}]}, {"compound": "rhodamine-labeled NMU-25: rhodamine-labeled NMU-25 peptide (Phoenix Pharmaceuticals) (FRVDEEFQSPFASQSRGYFLFRPRN; ends and bridges not checked; also: rhodamine-labeled, site not given here)", "values": [{"measurement": "binding to surface of COS-7 cells expressing GHSR1b (flow cytometry)", "setting": "GHSR1b; dose dependent", "value": "binding"}, {"measurement": "binding to surface of COS-7 cells expressing NTSR1 (flow cytometry)", "setting": "NTSR1; dose dependent", "value": "binding"}]}, {"compound": "Cy5-labeled NMU-25: Cy5-labeled NMU-25 peptide (FRVDEEFQSPFASQSRGYFLFRPRN; ends and bridges not checked; also: Cy5-labeled, site not given here)", "values": [{"measurement": "binding to the cell surface", "setting": "[2]", "value": "detected binding"}, {"measurement": "binding to the cell surface", "setting": "[3]", "value": "detected binding"}]}, {"compound": "NMU: neuropeptide neuromedin U added into the medium (FRVDEEFQSPFASQSRGYFLFRPRN)", "values": [{"measurement": "growth of COS-7 cells", "setting": "COS-7 cells", "value": "promoted the growth"}]}, {"compound": "NMU-25: NMU-25 peptide, ligand neuromedin U (FRVDEEFQSPFASQSRGYFLFRPRN)", "values": [{"measurement": "intracellular Ca2+ flux / mobilization", "setting": "GHSR1b/NTSR1", "value": "but not Ca^2+ flux"}, {"measurement": "co-localization with FLAG-tagged GHSR1b (confocal microscopy)", "setting": "GHSR1b; [5]", "value": "located together on the cell membrane"}, {"measurement": "expression of FOXM1", "setting": "FOXM1", "value": "higher expression of FOXM1"}, {"measurement": "co-localization with FLAG-tagged NTSR1 (confocal microscopy)", "setting": "NTSR1; [5]", "value": "located together on the cell membrane"}]}, {"compound": "COC(=O)Nc1nc2ccc(C(=O)c3cccs3)cc2[nH]1", "note": "[nocodazole]", "values": [{"measurement": "effect on endogenous KOC1, KIF11 and microtubules", "setting": "A549 cells [4]", "value": "collapse and aggregation of endogenous KOC1 and KIF11, along with the depolymerization of microtubules in the cytoplasm"}]}]}
